In publication PMC9127750, “Structure-based design of CDC42 effector interaction inhibitors for the treatment of cancer” (Cell reports, 2022):

Test system: WM3248 melanoma cells, 486 antibodies
Test: Reverse phase protein arrays (RPPA);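 as to CA9.R.C RPPA level: ratio of treated to vehicle (0 µM) normalized linear protein signal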;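 as to RPPA ACC1.R.C: ratio of treated to vehicle (0 µM) normalized linear protein signal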;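 as to RPPA ASNS.R.V: ratio of treated to vehicle (0 µM) normalized linear protein signal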;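 as to RPPA Akt1.R.V: ratio of treated to vehicle (0 µM) normalized linear protein signal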;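 as to RPPA Ambra1 pS52.R.C: ratio of treated to vehicle (0 µM) normalized linear protein signal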;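 as to RPPA Atg5.R.C: ratio of treated to vehicle (0 µM) normalized linear protein signal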;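 as to RPPA Bim.R.V: ratio of treated to vehicle (0 µM) normalized linear protein signal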
Assay type: cell-based, Human
Settings: 5 uM
Excerpt: Pellets were snap frozen in liquid nitrogen and shipped to MD Anderson Cancer Center core RPPA facility for RPPA analysis (Table S5). Three biological replicates for each sample were generated.
Nomenclatures on the RPPA heatmaps: name_of_antibody.species_of_antibody.status_of_antibody. V - antibody validated; C - validation of antibody in progress; Q - antibody nonspecific; E – under evaluation; antibodies raised in M - mouse, G - goat, R - rabbit, or T - rat.

CN(C)c1cccc(Nc2cc(-c3ccccc3)nc(C3CCNCC3)n2)c1 [ARN22089, N1,N1-dimethyl-N3-(6-phenyl-2-(piperidin-4-yl)pyrimidin-4-yl)benzene-1,3-diamine]
RPPA Akt_pT308.R.V (5W3): 0.946 | RPPA Ambra1_pS52.R.C (5W3): 0.917 | RPPA Annexin.I.M.V (5W3): 0.971 | RPPA Annexin.VII.M.V (5W3): 1.007 | RPPA Atg3.R.V (5W3): 1.133 | RPPA Atg4B.R.C (5W3): 1.148 | RPPA Atg5.R.C (5W3): 0.936 | RPPA Atg7.R.V (5W3): 1.164 | RPPA Aurora.A.R.C (5W3): 1.000 | RPPA Aurora.ABC_pT288_pT232_pT198.R.C (5W3): 0.878 | RPPA Aurora.B.R.V (5W3): 0.688 | RPPA Axl.R.V (5W3): 1.276 | RPPA B7.H4.R.C (5W3): 1.076 | RPPA B.Raf_pS445.R.V (5W3): 1.159 | RPPA BAP1.M.V (5W3): 0.823 | RPPA BCL2A1.R.V (5W3): 0.750 | RPPA BMK1.Erk5_pT218_Y220.R.V (5W3): 1.014 | RPPA BRCA1.M.C (5W3): 0.946 | RPPA BRD4.R.V (5W3): 1.138 | RPPA Bad_pS112.R.V (5W3): 1.056 | RPPA Bak.R.C (5W3): 1.134 | RPPA Bax.R.V (5W3): 0.916 | RPPA Bcl2.R.C (5W3): 0.798 | RPPA Bcl.xL.R.V (5W3): 0.681 | RPPA Beclin.R.C (5W3): 0.789 | RPPA Bid.R.C (5W3): 1.142 | RPPA Bim.R.V (5W3): 0.991 | RPPA X4E.BP1.R.V (5W3): 1.157 | RPPA X4E.BP1_pT37_T46.R.V (5W3): 0.968 | RPPA X14.3.3.zeta.R.V (5W3): 0.946 | RPPA X14.3.3βR.V (5W3): 1.033 | RPPA X14.3.3εM.C (5W3): 0.879 | RPPA X53BP1.R.V (5W3): 0.922 | RPPA b.Catenin.R.V (5W3): 0.837 | RPPA b.Catenin_pT41_S45.R.V (5W3): 0.998 | RPPA c.Abl.R.V (5W3): 1.059 | RPPA c.Abl_pY412.R.C (5W3): 1.150 | RPPA c.IAP2.R.C (5W3): 1.026 | C.Raf.R.C RPPA level (Average): 1.065 | C.Raf_pS338.R.V RPPA level (Average): 1.113 | CA9.R.C RPPA level (Average): 0.982 | CD2.M.C RPPA level (Average): 1.031 | CD4.R.V RPPA level (Average): 1.062 | CD5.M.C RPPA level (Average): 1.017 | CD20.R.C RPPA level (Average): 0.788 | CD26.R.V RPPA level (Average): 0.939 | CD29.M.V RPPA level (Average): 1.028 | CD31.M.V RPPA level (Average): 1.028 | CD44.R.C RPPA level (Average): 0.921 | CD45.M.V RPPA level (Average): 1.027 | CD49b.M.V RPPA level (Average): 0.960 | CD68.M.C RPPA level (Average): 1.012 | CD74.M.V RPPA level (Average): 0.998 | CD134.R.V RPPA level (Average): 1.020 | CD171.M.V RPPA level (Average): 0.844 | CDK1_pT14.R.C RPPA level (Average): 1.060 | CDK9.R.V RPPA level (Average): 0.980 | CDT1.R.V RPPA level (Average): 1.028 | CENP.A.R.V RPPA level (Average): 0.953 | CHD1L.R.V RPPA level (Average): 1.018 | CIITA.R.C RPPA level (Average): 0.895 | COG3.R.V RPPA level (Average): 1.097 | CRABP1.R.C RPPA level (Average): 1.004 | CRABP2.R.V RPPA level (Average): 1.035 | CREB_pS133.R.C RPPA level (Average): 1.124 | CSK.R.C RPPA level (Average): 0.918 | Calnexin.R.V RPPA level (Average): 0.992 | Caspase.7.cleaved..R.C RPPA level (Average): 1.029 | Caspase.8.M.Q RPPA level (Average): 0.956 | Caspase.8.cleaved.R.C RPPA level (Average): 1.054 | Cdc6.R.V RPPA level (Average): 0.980 | Cdc42.R.C RPPA level (Average): 1.028 | Chk1_pS296.R.V RPPA level (Average): 1.083 | Chk1_pS345.R.C RPPA level (Average): 0.981 | Chk2.M.V RPPA level (Average): 0.925 | Chk2_pT68.R.C RPPA level (Average): 1.151 | Claudin.7.R.V RPPA level (Average): 0.907 | Collagen.VI.R.V RPPA level (Average): 1.059 | Complex.II.Subunit.M.V RPPA level (Average): 0.933 | Connexin.43.R.C RPPA level (Average): 1.140 | Coup.TFII.R.C RPPA level (Average): 1.033 | Cox2.R.C RPPA level (Average): 1.057 | Cox.IV.R.V RPPA level (Average): 1.028 | Creb.R.C RPPA level (Average): 1.080 | CtIP.R.V RPPA level (Average): 0.961 | Cyclin.B1.R.V RPPA level (Average): 1.030 | Cyclin.D1.R.C RPPA level (Average): 1.001 | Cyclin.D3.M.V RPPA level (Average): 1.046 | Cyclin.E1.R.V RPPA level (Average): 0.995 | Cyclophilin.F.M.V RPPA level (Average): 0.908 | D.a.Tubulin.R.V RPPA level (Average): 1.114 | DAPK1_pS308.M.C RPPA level (Average): 0.822 | DDB.1.R.V RPPA level (Average): 1.124 | DDR1.R.V RPPA level (Average): 0.952 | DDR1_pY513.R.C RPPA level (Average): 1.021 | DJ1.R.V RPPA level (Average): 1.059 | DM.K9.Histone.H3.M.V RPPA level (Average): 0.994 | DNA.Ligase.IV.R.C RPPA level (Average): 1.104 | DNA_POLG.R.V RPPA level (Average): 0.927 | RPPA A.Raf.R.V (Average): 1.059 | RPPA A.Raf_pS299.R.C (Average): 0.992 | RPPA ACC1.R.C (Average): 1.065 | RPPA ACC_pS79.R.V (Average): 0.961 | RPPA ACLY_pS455.R.V (Average): 0.986 | RPPA ACSL1.R.V (Average): 0.842 | RPPA ACVRL1.R.C (Average): 0.970 | RPPA ADAR1.M.V (Average): 1.014 | RPPA ALKBH5.R.V (Average): 0.919 | RPPA AMPK.a2_pS345.R.V (Average): 1.081 | RPPA AMPKa.R.C (Average): 1.048 | RPPA AMPKa_pT172.R.C (Average): 1.331 | RPPA AR.R.V (Average): 1.032 | RPPA ARID1A.R.C (Average): 1.009 | RPPA ASNS.R.V (Average): 1.062 | RPPA ATM.R.V (Average): 1.153 | RPPA ATM_pS1981.R.V (Average): 0.964 | RPPA ATP5A.M.C (Average): 0.801 | RPPA ATP5H.R.V (Average): 0.961 | RPPA ATR.R.V (Average): 0.966 | RPPA ATRX.R.C (Average): 1.030 | RPPA ATR_pS428.R.C (Average): 1.061 | RPPA AceCS1.R.V (Average): 0.899 | RPPA Akt1.R.V (Average): 0.928 | RPPA Akt1_pS473.R.V (Average): 1.048 | RPPA Akt2.R.V (Average): 1.002 | RPPA Akt2_pS474.R.C (Average): 1.185 | RPPA Akt.R.V (Average): 1.002 | RPPA Akt_pS473.R.V (Average): 1.132 | RPPA Akt_pT308.R.V (Average): 0.940 | RPPA Ambra1_pS52.R.C (Average): 0.946 | RPPA Annexin.I.M.V (Average): 1.026 | RPPA Annexin.VII.M.V (Average): 0.993 | RPPA Atg3.R.V (Average): 1.035 | RPPA Atg5.R.C (Average): 0.970 | RPPA Atg7.R.V (Average): 0.970 | RPPA Aurora.A.R.C (Average): 0.940 | RPPA Aurora.ABC_pT288_pT232_pT198.R.C (Average): 0.876 | RPPA Aurora.B.R.V (Average): 0.890 | RPPA Axl.R.V (Average): 1.076 | RPPA B7.H3.R.C (Average): 1.022 | RPPA B7.H4.R.C (Average): 1.046 | RPPA B.Raf.R.C (Average): 1.049 | RPPA BAP1.M.V (Average): 0.921 | RPPA BCL2A1.R.V (Average): 0.906 | RPPA BMK1.Erk5_pT218_Y220.R.V (Average): 0.997 | RPPA Bad_pS112.R.V (Average): 1.055 | RPPA Bax.R.V (Average): 0.956 | RPPA Bcl2.R.C (Average): 0.897 | RPPA Bcl.xL.R.V (Average): 0.932 | RPPA Beclin.R.C (Average): 0.921 | RPPA BiP.GRP78.M.C (Average): 0.957 | RPPA Bid.R.C (Average): 1.077 | RPPA Bim.R.V (Average): 0.984 | RPPA DNMT1.R.V (Average): 0.995 | RPPA DRP1.R.V (Average): 1.010 | RPPA DUSP4.R.V (Average): 1.114 | RPPA DYRK1B.R.C (Average): 1.013 | RPPA Dvl3.R.V (Average): 1.014 | RPPA E2F1.R.V (Average): 0.961 | RPPA E.Cadherin.R.V (Average): 0.957 | RPPA EGFR.R.V (Average): 0.980 | RPPA EGFR_pY1068.R.C (Average): 0.993 | RPPA EGFR_pY1173.R.V (Average): 1.046
